O=P(c1ccccc1)(c1ccccc1)c1cc(O)ccc1O
Conditions	solubility (mole fraction)
in 2-ethoxyethanol, 299.43 K	0.0108
in 2-ethoxyethanol, 303.25 K	0.0113
in 2-ethoxyethanol, 308.24 K	0.0124
in 2-ethoxyethanol, 313.46 K	0.0137
in 2-ethoxyethanol, 318.15 K	0.0154
in 2-ethoxyethanol, 323.27 K	0.0168
in 2-ethoxyethanol, 328.26 K	0.018
in 2-ethoxyethanol, 333.45 K	0.0198
in 2-ethoxyethanol, 338.75 K	0.0223
in 2-ethoxyethanol, 343.15 K	0.0236
in 2-ethoxyethanol, 348.15 K	0.0252
in 2-ethoxyethanol, 353.14 K	0.0279
in 2-ethoxyethanol, 358.06 K	0.0295
in 2-ethoxyethanol, 363.15 K	0.0316
in 2-ethoxyethanol, 368.16 K	0.0348
in acetone, 299.45 K	0.00175
in acetone, 303.26 K	0.00188
in acetone, 308.24 K	0.00216
in acetone, 313.47 K	0.00236
in acetone, 318.13 K	0.00262
in acetone, 323.26 K	0.00296
in acetone, 328.25 K	0.00332
in ethanol, 293.95 K	0.00571
in ethanol, 298.26 K	0.00634
in ethanol, 303.44 K	0.00721
in ethanol, 308.26 K	0.00787
in ethanol, 313.45 K	0.00903
in ethanol, 318.47 K	0.00979
in ethanol, 323.35 K	0.0109
in ethanol, 328.43 K	0.0117
in ethanol, 333.35 K	0.0127
in methanol, 294.16 K	0.00625
in methanol, 298.35 K	0.00707
in methanol, 303.87 K	0.00814
in methanol, 308.85 K	0.00946
in methanol, 313.34 K	0.0108
in methanol, 318.15 K	0.0123
in methanol, 323.56 K	0.0138
in toluene, 293.96 K	0.00071
in toluene, 298.25 K	0.00075
in toluene, 303.47 K	0.00078
in toluene, 308.24 K	0.00082
in toluene, 313.45 K	0.00086
in toluene, 318.43 K	0.00089
in toluene, 323.38 K	0.00094
in toluene, 328.45 K	0.00099
in water, 297.16 K	0.00011
in water, 308.15 K	0.00012
in water, 313.34 K	0.00013
in water, 318.15 K	0.00014
in water, 323.47 K	0.00014
in water, 328.46 K	0.00015
in water, 333.25 K	0.00015
in water, 338.17 K	0.00016
in water, 343.25 K	0.00017
in water, 348.36 K	0.00017
in water, 353.14 K	0.00018
in water, 358.13 K	0.00018
in water, 363.27 K	0.00019
in water, 368.26 K	0.00019

From BigSolDB 2.1
